# Non-standard residues stand in square brackets, D forms with d. Residues, ends and D or L forms follow the SMILES beside them. *: point of attachment. Dolaproine = CO[C@@H]([C@@H]1CCCN1)[C@@H](C)C(=O)O; Dil = CC[C@H](C)[C@H](NC)[C@@H](CC(=O)O)OC; X1 = C[C@@H](N*)[C@@H](O)c1ccccc1; NMeV = CN[C@H](C(=O)O)C(C)C
# Tested on: Nectin-4 overexpressing bladder carcinoma cells (UM-UC-3-hNectin-4+)
# Experiment: In vitro cytotoxic activity under conditions that mimic intravesical dosing (Cell TiterGlo)
# Assay type: cell-based, human
# Conditions: UM-UC-3-hNectin-4+ cells; 2 h exposure then wash out vs 96 h; cell death by Cell TiterGlo
# Experimental: To assess cytotoxic activity of EV in vitro under conditions that mimic intravesical dosing, Nectin-4 overexpressing bladder carcinoma cells (UM-UC-3-hNectin-4^+) were exposed to either EV, unconjugated anti-Nectin-4 antibody, unconjugated MMAE, or control ADC (FIG. 2). IV dosing was modeled by exposing the cells for 96 hours. Intravesical dosing was modeled with exposures of 2 and 24 hours followed by test article wash out. Cell death was measured using Cell TiterGlo® (Promega Corporation, Madison, WI, USA).
compound,measurement,value
"CC[C@H](C)[C@@H]([C@@H](CC(=O)N1CCC[C@H]1[C@H](OC)[C@@H](C)C(=O)N[C@H](C)[C@@H](O)c1ccccc1)OC)N(C)C(=O)[C@@H](NC(=O)[C@@H](NC)C(C)C)C(C)C [unconjugated MMAE, monomethyl auristatin E] (H-[NMeV]V[Dil][Dolaproine]-X1)",Decrease in potency (EC90) on decreasing the exposure from 96 to 2 hours,44 fold
